According to ChEMBL document CHEMBL1201862, “PubChem BioAssay data set” (2004):
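96-well plates; 48 h exposure; 5 concentrations. Endpoints by linear interpolation between flanking doses. Not reached: highest tested concentration assigned. GI50 = concentration required for 50% inhibition of growth.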 Activity calls are given as the source filed them. Rule as the data show it: active = GI50 up to about 1.1 µM and inactive = higher.

Experiments:
Assay in all cases: growth of human tumour cells (NCI), 48 h
HT-29 = test system: HT-29
TK-10 = test system: TK-10
KM12 = test system: KM12
OVCAR-8 = test system: OVCAR-8
SN12C = test system: SN12C
UO-31 = test system: UO-31
HL-60 = test system: HL-60
OVCAR-3 = test system: OVCAR-3
SF-539 = test system: SF-539
UACC-257 = test system: UACC-257
SNB-19 = test system: SNB-19
K562 = test system: K562
SW-620 = test system: SW-620
CCRF-CEM = test system: CCRF-CEM
HCT-116 = test system: HCT-116
A549 = test system: A549
A498 = test system: A498
EKVX = test system: EKVX
LXFL 529 = test system: LXFL 529
NCI-H226 = test system: NCI-H226
SK-MEL-28 = test system: SK-MEL-28
OVCAR-4 = test system: OVCAR-4
M19-MEL = test system: M19-MEL
KM-20L2 = test system: KM-20L2
SK-OV-3 = test system: SK-OV-3
DMS-273 = test system: DMS-273
OVCAR-5 = test system: OVCAR-5
SF-268 = test system: SF-268
ACHN = test system: ACHN
M14 = test system: M14
HOP-62 = test system: HOP-62
RXF 393 = test system: RXF 393
MOLT-4 = test system: MOLT-4
SNB-78 = test system: SNB-78
IGROV-1 = test system: IGROV-1
SK-MEL-5 = test system: SK-MEL-5
786-0 = test system: 786-0
SR = test system: SR
SNB-75 = test system: SNB-75
NCI-H460 = test system: NCI-H460
HOP-92 = test system: HOP-92
NCI-H23 = test system: NCI-H23
CAKI-1 = test system: CAKI-1
Malme-3M = test system: Malme-3M
HCC 2998 = test system: HCC 2998
SF-295 = test system: SF-295
UACC-62 = test system: UACC-62
NCI-H522 = test system: NCI-H522
U-251 = test system: U-251
DLD-1 = test system: DLD-1
SK-MEL-2 = test system: SK-MEL-2
DMS-114 = test system: DMS-114
COLO 205 = test system: COLO 205
LOX IMVI = test system: LOX IMVI

Measured: GI50

COC1=CC(=O)OC(/C=C(C)/C=C/C2=C(C)CCCC2(C)C)C1 (configuration not stated)
inactive: HT-29 > 100 µM | TK-10 > 100 µM | KM12 > 100 µM | OVCAR-8 > 100 µM | SN12C > 100 µM | UO-31 > 100 µM | HL-60 > 100 µM | OVCAR-3 > 100 µM | SF-539 > 100 µM | UACC-257 > 100 µM | SNB-19 > 100 µM | K562 > 100 µM | SW-620 > 100 µM | CCRF-CEM > 100 µM | HCT-116 > 100 µM | A549 > 100 µM | A498 > 100 µM | EKVX > 100 µM | LXFL 529 > 100 µM | NCI-H226 > 100 µM | SK-MEL-28 > 100 µM | OVCAR-4 > 100 µM | M19-MEL > 100 µM | KM-20L2 36 µM | SK-OV-3 > 100 µM | DMS-273 > 100 µM | OVCAR-5 > 100 µM | SF-268 > 100 µM | ACHN > 100 µM | M14 > 100 µM | HOP-62 > 100 µM | RXF 393 > 100 µM | MOLT-4 > 100 µM | SNB-78 > 100 µM | IGROV-1 > 100 µM | SK-MEL-5 > 100 µM | 786-0 > 100 µM | SR > 100 µM | SNB-75 > 100 µM | NCI-H460 > 100 µM | HOP-92 > 100 µM | NCI-H23 > 100 µM | CAKI-1 > 100 µM | Malme-3M > 100 µM | HCC 2998 > 100 µM | SF-295 > 100 µM | UACC-62 > 100 µM | NCI-H522 > 100 µM | U-251 > 100 µM | DLD-1 > 100 µM | SK-MEL-2 > 100 µM | DMS-114 > 100 µM

Oc1ccccc1-c1nnc(S)n1/N=C/c1ccc(-c2ccc(Br)cc2)o1
inactive: HT-29 51.3 µM | TK-10 15.2 µM | KM12 34.7 µM | OVCAR-8 34 µM | UO-31 28 µM | OVCAR-3 24.2 µM | SF-539 33 µM | UACC-257 24.3 µM | SNB-19 24.4 µM | K562 32.1 µM | SW-620 38.6 µM | HCT-116 33.7 µM | A549 48.1 µM | LXFL 529 22 µM | NCI-H226 22.9 µM | SK-MEL-28 56.5 µM | OVCAR-4 15.6 µM | M19-MEL 42.5 µM | KM-20L2 35.5 µM | SK-OV-3 31 µM | OVCAR-5 > 100 µM | SF-268 40.3 µM | ACHN 29.6 µM | M14 41.7 µM | HOP-62 29.9 µM | MOLT-4 25.4 µM | SNB-78 23.6 µM | IGROV-1 29.2 µM | COLO 205 39.6 µM | 786-0 39.2 µM | SNB-75 32.7 µM | NCI-H460 95.9 µM | HOP-92 18.4 µM | NCI-H23 20.5 µM | LOX IMVI 23.7 µM | SF-295 60.4 µM | UACC-62 13.1 µM | NCI-H522 60.4 µM | U-251 25.9 µM | DLD-1 34 µM
